US20060135569A1, “Use of benzisoselenazolone compounds against ischemic myocardial damage” (priority 2002, published 2006)
Marks after values point to notes of the source that are not given here.

Experiments:
TA97; TA98; TA100; TA102 = test: Ames (mutagenesis) test, overall result in 4 strains; assay type: cell-based; settings: 0.5, 5, 50 and 500 μg/dish
Protocol: (§1) To assess the mutagenic effects of 5 compounds (IMM-004; IMM-065; IMM-127; IMM-128; IMM-313), the Ames test was performed in 4 strains (TA97; TA98; TA100; TA102). The experiment was conducted with compounds at 4 concentration levels (0.5, 5, 50 and 500 μg/dish). […]

[1] = system: arrhythmia induced by ischemia/reperfusion insults in anesthetized rats; test: Ischemia/reperfusion arrhythmia in anesthetized rats, oral administration; assay type: in vivo, rat
Protocol: IMM-004 and IMM-127 were dissolved in the solution of ethanol and PEG (ethanol: PEG (v/v)=1:9). Rats were orally administrated the compounds at volume of 10 ml/Kg. The left anterior descending coronary artery was ligated in rats for 15 min at 60 min after the administration, and then the reprefusion was achieved.
(§2) Arrhythmic potency induced by myocardial insults was used to assess the potential protective effect of the compounds.

[2] = system: isolated rat hearts subjected to ischemia-reperfusion (I/R); test: Isolated heart subjected to ischemia/reperfusion injury (arrhythmia)
Method in brief: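 Rat hearts perfused in vitro and subjected to ischemia-reperfusion after drug exposure. Recorded endpoints: duration of ventricular arrhythmia and incidence of ventricular extrasystole and VT/VF.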

TA100 = test: Ames test, strain TA100; assay type: cell-based
Protocol: as §1

TA102 = test: Ames test, strain TA102; assay type: cell-based
Protocol: as §1

KM mice = test: Acute toxicity study in mice; assay type: in vivo; settings: all dose groups, mice
Protocol: Acute toxicity studies were performed with IMM-004 and IMM-127 (synthesized by ourselves). The compound was provided as powder, which was milled and suspended in 0.5% carboxymethylcellulose sodium (CMC—Na) before use.
Male KM mice weighting 19±2 g were housed for an adaptation before use. Mice were randomly divided into groups, and each group consists of 10 animals. Mice were all fasted for 14 hrs before the administration of the tested compounds. Activity of mice in high dose group was reduced 30 min after the administration. 24 h after the administration, mice in each group were restored to normal. Mice were observed daily for a period of 7 days after the administration.

[3] = system: arrhythmia caused by ischemia/reperfusion insults in anaesthetic rats; test: Ischemia/reperfusion arrhythmia in anaesthetic rats, intravenous injection; assay type: in vivo, rat; settings: for Occurrence time / VE Duration time / VE Incidence (%) / VF Duration time / VF Incidence (%) / VT Duration time / VT Incidence (%): intravenously injected per table title
Source text: (1) Protective Effects of the Tested Compounds on Myocardial Insults in Rats after Intravenously Injection
as §2

TA97 = test: Ames test, strain TA97; assay type: cell-based
Protocol: as §1

TA98 = test: Ames test, strain TA98; assay type: cell-based
Protocol: as §1

[4] = 10^−6 M, isolated heart ischemia/reperfusion
[5] = 3 mg/Kg intravenous (femoral vein), rats

Structure (SMILES): O=c1c2cc(Cl)ccc2[se]n1-c1ccccn1 [IMM-004, 5-chloro-2-(2-pyridyl)-1,2-benz-isoselenazol-3(2H)-one]
- mutagenic effect (Ames test) (TA97; TA98; TA100; TA102): No evidence for a mutagenic effect
- protective effect: incidence/duration of VT, VF, duration of ventricular arrhythmic ([1]; 10 mg/Kg orally, rats): No protective effect
- Occurrence time ([1]; 10 mg/Kg p.o.): 9.3 ± 10.0 s
- VE Duration time ([1]; 10 mg/Kg p.o.): 4.7 ± 12.9 s
- VE Incidence (%) ([1]; 10 mg/Kg p.o.): 100%
- VF Duration time ([1]; 10 mg/Kg p.o.): 8.8 ± 7.4 s
- VF Incidence (%) ([1]; 10 mg/Kg p.o.): 22.2%
- VT Duration time ([1]; 10 mg/Kg p.o.): 30.2 ± 17.6 s
- VT Incidence (%) ([1]; 10 mg/Kg p.o.): 88.9%
- protective effect: incidence/duration of VT, VF, duration of ventricular arrhythmic ([1]; 30 mg/Kg orally, rats): all reduced
- Occurrence time ([1]; 30 mg/Kg p.o.): 19.6 ± 24.1 s
- VE Duration time ([1]; 30 mg/Kg p.o.): 0.4 ± 1.3 s
- VE Incidence (%) ([1]; 30 mg/Kg p.o.): 66.7%
- VF Duration time ([1]; 30 mg/Kg p.o.): 3.3 ± 5.7 s
- VF Incidence (%) ([1]; 30 mg/Kg p.o.): 11.1* %
- VT Duration time ([1]; 30 mg/Kg p.o.): 17.0 ± 12.6 s
- VT Incidence (%) ([1]; 30 mg/Kg p.o.): 44.4** %
- Occurrence time ([1]; 100 mg/Kg p.o.): 16.4 ± 25.1 s
- VE Duration time ([1]; 100 mg/Kg p.o.): 5.5 ± 10.2 s
- VE Incidence (%) ([1]; 100 mg/Kg p.o.): 66.7%
- VF Duration time ([1]; 100 mg/Kg p.o.): 3.9 ± 6.8 s
- VF Incidence (%) ([1]; 100 mg/Kg p.o.): 33.3%
- VT Duration time ([1]; 100 mg/Kg p.o.): 22.7 ± 19.4 s
- VT Incidence (%) ([1]; 100 mg/Kg p.o.): 55.5* %
- protective effect: incidence/duration of VT, duration of ventricular arrhythmic ([1]; 100 mg/kg orally, rats): all reduced
- protective effects on myocardial insults ([2]; 10^−6M, isolated heart): significant protective effects
- AAT: arrhythmic occurrence time, Time [2, 4]: 0.70 ± 0.33 min
- VF (ventricular fibrillation) Incidence rate (%) [2, 4]: 0** %
- VPS (ventricular premature beats) Incidence rate (%) [2, 4]: 37.5%
- VT (ventricular tachycardia) Incidence rate (%) [2, 4]: 37.5%
- TA100 +S9 (TA100; 0.5 μg/dish): 191.33 ± 44.25
- TA100 −S9 (TA100; 0.5 μg/dish): 121.00 ± 8.52
- TA100 +S9 (TA100; 5 μg/dish): 215.33 ± 23.68
- TA100 −S9 (TA100; 5 μg/dish): 58.33 ± 29.39
- TA100 +S9 (TA100; 50 μg/dish): 126.00 ± 31.79
- TA100 −S9 (TA100; 50 μg/dish): 89.67 ± 14.70
- TA100 +S9 (TA100; 500 μg/dish): 160.00 ± 21.33
- TA100 −S9 (TA100; 500 μg/dish): 78.33 ± 13.52
- TA102 +S9 (TA102; 0.5 μg/dish): 328.67 ± 26.39
- TA102 −S9 (TA102; 0.5 μg/dish): 164.67 ± 62.66
- TA102 +S9 (TA102; 5 μg/dish): 250.67 ± 7.54
- TA102 −S9 (TA102; 5 μg/dish): 218.67 ± 23.79
- TA102 +S9 (TA102; 50 μg/dish): 297.33 ± 24.07
- TA102 −S9 (TA102; 50 μg/dish): 52.67 ± 6.59
- TA102 +S9 (TA102; 500 μg/dish): 284.00 ± 64.27
- TA102 −S9 (TA102; 500 μg/dish): 16.00 ± 5.89
- mortality in the dose groups (KM mice): no mortality
- incidence and duration of VT, VF, VE / ventricular arrhythmic [3, 5]: all reduced
- latency of ventricular arrhythmic [3, 5]: significantly prolonged
- Occurrence time ([3]; 10 mg/Kg): 9.3 ± 10.0 s
- VE Duration time ([3]; 10 mg/Kg): 4.7 ± 12.9 s
- VE Incidence (%) ([3]; 10 mg/Kg): 100%
- VF Duration time ([3]; 10 mg/Kg): 8.8 ± 7.4 s
- VF Incidence (%) ([3]; 10 mg/Kg): 22.2%
- VT Duration time ([3]; 10 mg/Kg): 30.2 ± 17.6 s
- VT Incidence (%) ([3]; 10 mg/Kg): 88.9%
- Occurrence time ([3]; 30 mg/Kg): 19.6 ± 24.1 s
- VE Duration time ([3]; 30 mg/Kg): 0.4 ± 1.3 s
- VE Incidence (%) ([3]; 30 mg/Kg): 66.7%
- VF Duration time ([3]; 30 mg/Kg): 3.3 ± 5.7 s
- VF Incidence (%) ([3]; 30 mg/Kg): 11.1* %
- VT Duration time ([3]; 30 mg/Kg): 17.0 ± 12.6 s
- VT Incidence (%) ([3]; 30 mg/Kg): 44.4** %
- Occurrence time ([3]; 100 mg/Kg): 16.4 ± 25.1 s
- VE Duration time ([3]; 100 mg/Kg): 5.5 ± 10.2 s
- VE Incidence (%) ([3]; 100 mg/Kg): 66.7%
- VF Duration time ([3]; 100 mg/Kg): 3.9 ± 6.8 s
- VF Incidence (%) ([3]; 100 mg/Kg): 33.3%
- VT Duration time ([3]; 100 mg/Kg): 22.7 ± 19.4 s
- VT Incidence (%) ([3]; 100 mg/Kg): 55.5* %
- TA97 +S9 (TA97; 0.5 μg/dish): 55.33 ± 24.36
- TA97 −S9 (TA97; 0.5 μg/dish): 54.33 ± 4.78
- TA97 +S9 (TA97; 5 μg/dish): 80.67 ± 8.58
- TA97 −S9 (TA97; 5 μg/dish): 54.67 ± 4.99
- TA97 +S9 (TA97; 50 μg/dish): 204.67 ± 29.41
- TA97 −S9 (TA97; 50 μg/dish): 47.00 ± 5.72
- TA97 +S9 (TA97; 500 μg/dish): 67.33 ± 36.59
- TA97 −S9 (TA97; 500 μg/dish): 55.50 ± 3.50
- TA98 +S9 (TA98; 0.5 μg/dish): 70.67 ± 6.85
- TA98 −S9 (TA98; 0.5 μg/dish): 56.33 ± 1.25
- TA98 +S9 (TA98; 5 μg/dish): 48.33 ± 11.95
- TA98 −S9 (TA98; 5 μg/dish): 29.33 ± 0.94
- TA98 +S9 (TA98; 50 μg/dish): 60.67 ± 26.64
- TA98 −S9 (TA98; 50 μg/dish): 19.67 ± 3.29
- TA98 +S9 (TA98; 500 μg/dish): 55.33 ± 15.92
- TA98 −S9 (TA98; 500 μg/dish): 24.67 ± 4.71
